Test results as given in PMC6333288, “The crystal structure of the N-acetylglucosamine 2-epimerase from Nostoc sp. KVJ10 reveals the true dimer” (Acta Crystallographica. Section D, Structural Biology, 2019).
One block for each compound: values may come before it.

Tests used:
nAGE10 = molecular target: T1, nAGE10 (Nostoc sp. KVJ10, UniProt A0A452CSU8); test: coupled AGE/NAL (AsNAL) reaction, Neu5Ac by thiobarbituric acid assay; assay type: biochemical; conditions: HEPES pH 8.0, 25 °C, 1 h
T1 construct: synthetic codon-optimised gene, C-terminal hexahistidine tag (no cleavage described), expressed in E. coli BL21 Star (DE3); dimer by gel filtration; residues Tyr3-Leu391 resolved, 157-164 missing
T1 sequence (A0A452CSU8 entry or part of it): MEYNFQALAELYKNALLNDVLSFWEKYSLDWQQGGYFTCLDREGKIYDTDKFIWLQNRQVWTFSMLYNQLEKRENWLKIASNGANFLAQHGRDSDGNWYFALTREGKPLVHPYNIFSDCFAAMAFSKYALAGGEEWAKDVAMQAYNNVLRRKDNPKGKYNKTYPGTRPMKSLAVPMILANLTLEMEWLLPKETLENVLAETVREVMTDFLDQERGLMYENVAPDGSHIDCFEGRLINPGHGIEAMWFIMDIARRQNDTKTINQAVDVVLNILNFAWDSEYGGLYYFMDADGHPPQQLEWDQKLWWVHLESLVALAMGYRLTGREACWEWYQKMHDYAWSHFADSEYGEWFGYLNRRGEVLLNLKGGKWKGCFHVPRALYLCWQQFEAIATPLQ

[1] = molecular target: N-acetylglucosamine 2-epimerase from Nostoc sp. KVJ10 (Nostoc sp. KVJ10); test: SEC; gel-filtration chromatography on a Superdex 75 10/300 GL column; oligomerization state of purified nAGE10

Compound: Nc1ncnc2c1ncn2[C@@H]1O[C@H](COP(=O)(O)OP(=O)(O)OP(=O)(O)O)[C@@H](O)[C@H]1O [ATP]
coupled AGE/NAL (AsNAL) reaction, Neu5Ac by thiobarbituric acid assay (nAGE10; 10 mM ATP present versus absent, GlcNAc 15 mM, pyruvate 15 mM, allosteric activator): In the absence of ATP, only a fraction of Neu5Ac could be synthetized from GlcNAc

stoichiometry N [1]: 2
Compound: N-acetylglucosamine 2-epimerase from Nostoc sp. KVJ10 (enzyme)

Compound: CC(=O)N[C@H]1C(O)O[C@H](CO)[C@@H](O)[C@@H]1O (stereo partly drawn) [GlcNAc]
coupled AGE/NAL (AsNAL) reaction, Neu5Ac by thiobarbituric acid assay (nAGE10; 15 mM GlcNAc, 10 mM ATP, 15 mM pyruvate): The results show that the synthesis of Neu5Ac from GlcNAc is possible
